Results published in patent publication US20240122180A1, “FUNGICIDAL HALOMETHYL KETONES AND HYDRATES AND THEIR MIXTURES” (FMC Corporation, priority 2020, published 2024).

How the values were obtained:
[1] = system: Phakopsora pachyrhizi (the causal agent of Asian soybean rust); assay: Test A: preventive spray on soybean seedlings, visual disease rating (100 = 100% control; * 50 ppm, ** 10 ppm, *** 250 ppm); assay type: in vivo; details: 100 = 100% disease control
Text: (§1) General protocol for preparing test suspensions for Tests A-E: the test compounds were first dissolved in acetone in an amount equal to 3% of the final volume and then suspended at the desired concentration (in ppm) in acetone and purified water (50/50 mix by volume) containing 250 ppm of the surfactant […] (polyhydric alcohol esters). The resulting test suspensions were then used in Tests A-E.
The test solution was sprayed to the point of run-off on soybean seedlings. The following day the seedlings were inoculated with a spore suspension of Phakopsora pachyrhizi (the causal agent of Asian soybean rust) and incubated in a saturated atmosphere at 22° C. for 24 h, and then moved to a growth chamber at 22° C. for 8 days, after which time visual disease ratings were made.
(§2) Results for Tests A-E are given in Table A. In the Table, a rating of 100 indicates 100% disease control and a rating of 0 indicates no disease control (relative to the controls). An asterisk “*” or a double asterisk “**” or a triple asterisk “***” next to the rating value indicates a 50 ppm, 10 ppm and 250 ppm test suspension was used, respectively. A dash (-) indicates the compound was not tested.

[2] = system: Puccinia recondita f. sp. tritici (the causal agent of wheat leaf rust); assay: Test B: preventive spray on wheat seedlings, disease rating (100 = 100% control; * 50 ppm, ** 10 ppm, *** 250 ppm); assay type: in vivo; details: 100 = 100% disease control
Text: as §1
The test solution was sprayed to the point of run-off on wheat seedlings. The following day the seedlings were inoculated with a spore suspension of Puccinia recondita f. sp. tritici (the causal agent of wheat leaf rust) and incubated in a saturated atmosphere at 20° C. for 24 h, and then moved to a growth chamber at 20° C. for 6 days, after which time disease ratings were made.
as §2

[3] = 10 ppm test suspension, soybean seedlings
[4] = 10 ppm test suspension, wheat seedlings
[5] = 10 ppm test suspension, 0 = no control
[6] = 50 ppm test suspension, 0 = no control
[7] = 50 ppm test suspension, soybean seedlings
[8] = 50 ppm test suspension, wheat seedlings

| SMILES | Test A disease control rating [1, 3] [%] | Test B disease control rating [2, 4] [%] | other results |
| --- | --- | --- | --- |
| CCO/C(=C\Oc1ccc(C(=O)OC(C)C)cc1)C(F)(F)F [compound 73] | 0 | 0 |  |
| CCOC(=COc1ccc(CN2CCC(C#N)CC2)cc1)C(F)(F)F [compound 311] |  |  | Test A disease control rating [1, 5]: 0%; Test B disease control rating [2, 5]: 0% |
| CCO/C(=C\Oc1ccc(Cc2ccnc(OCC(F)F)n2)cc1)C(F)(F)F [compound 306] |  |  | Test A disease control rating [1, 6]: 96%; Test B disease control rating [2, 6]: 68% |
| CCO/C(=C\Oc1ccc(C(=O)OC)cc1)C(F)(F)F [compound 230] | 0 | 0 |  |
| C=C(C)COC(=O)c1ccn(Cc2ccc(O/C=C(\OCC)C(F)(F)F)cc2)n1 [compound 358] |  |  | Test A disease control rating [1, 5]: 100%; Test B disease control rating [2, 5]: 0% |
| N#CCNC(=O)c1cnn(Cc2ccc(OCC3(C(F)(F)F)OCCO3)cc2)c1 [compound 164] | 31 | 0 |  |
| CCOC(=O)c1ccnn1Cc1cc(C)cc(O/C=C(\OCC)C(F)(F)F)c1 [compound 462] |  |  | Test A disease control rating [1, 5]: 0%; Test B disease control rating [2, 5]: 0% |
| CCOC(=COc1ccc(Cn2ccc(C)n2)cc1)C(F)(F)F [compound 158] | 0 | 0 |  |
| CCOC(=O)C1CCCN(Cc2ccc(O/C=C(\OCC)C(F)(F)F)cc2)C1 (centres unmarked) [compound 269] |  |  | Test A disease control rating [1, 5]: 100%; Test B disease control rating [2, 5]: 0% |
| CCOC(=O)c1nccn1Cc1cccc(O/C=C(\OCC)C(F)(F)F)c1 [compound 367] |  |  | pest or weed control at 10 ppm ([1]; Phakopsora pachyrhizi, 10 ppm test suspension, 0 = no control): 0%; pest or weed control at 10 ppm ([2]; Puccinia recondita, 10 ppm test suspension, 0 = no control): 0% |
| O=S(=O)(NCc1ccc(OCC2(C(F)(F)F)OCCO2)cc1)C(F)(F)F [compound 207] | 0 | 0 |  |
| CCOC(=O)C=CCOc1ccc(O/C=C(\OCC)C(F)(F)F)cc1 [compound 96] | 13 | 0 |  |
| CCOC(=O)c1cnn(Cc2ccc(O/C=C(\OCCO)C(F)(F)F)cc2)c1 [compound 145] | 82 | 0 |  |
| O=C(NCc1ccc(OCC2(C(F)(F)F)OCCO2)cc1)c1cccc(C(F)(F)F)c1 [compound 179] | 0 | 0 |  |
| CCCCCCOC(=O)c1cnn(Cc2ccc(OCC(O)(O)C(F)(F)F)cc2)c1 [compound 48] |  |  | Test A disease control rating [1, 7]: 100%; Test B disease control rating [2, 8]: 91% |
| O=C(NCC(F)F)c1cnc(Cc2ccc(OCC(O)(O)C(F)(F)F)cc2)s1 [compound 295] |  |  | Test A disease control rating [1, 6]: 99%; Test B disease control rating [2, 6]: 80% |
| O=C(NCC(F)(F)F)c1cnc(Cc2ccc(OCC3(C(F)(F)F)OCCO3)cc2)s1 [compound 275] |  |  | Test A disease control rating [1, 5]: 0%; Test B disease control rating [2, 5]: 0% |
| CCOC(=O)c1cnn(Cc2ccc(C/C=C(\OCC)C(F)(F)F)cc2)c1 [compound 140] | 98 | 23 |  |
| CCO/C(=C\Oc1cccc(Cn2cc(C(=O)OCC(F)F)cn2)c1)C(F)(F)F [compound 347] |  |  | Test A disease control rating [1, 6]: 100%; Test B disease control rating [2, 6]: 0% |
| CCOC(=O)c1cnn(Cc2ccc(OCC3(C(F)(F)F)NCCO3)cc2)c1 (centres unmarked) [compound 21] | 84 | 23 |  |
| CCO/C(=C\Oc1ccc(C(C)=O)cc1)C(F)(F)F [compound 79] |  |  | Test A disease control rating [1, 7]: 0%; Test B disease control rating [2, 8]: 0% |
| CCOC(=O)c1cnn(Cc2ccc(O/C=C(\OS(=O)(=O)C(F)(F)F)C(F)(F)F)cc2)c1 [compound 422] |  |  | Test A disease control rating [1, 6]: 100%; Test B disease control rating [2, 6]: 84% |
| CCOC(=O)c1ccn(Cc2ccc(OCC(O)(O)C(F)(F)F)cc2)n1 [compound 233] |  |  | Test A disease control rating [1, 7]: 100%; Test B disease control rating [2, 8]: 96% |

| SMILES | Test A disease control rating [1, 3] [%] | Test B disease control rating [2, 4] [%] | other results |
| --- | --- | --- | --- |
| O=C(OCC1OCCO1)c1cnn(Cc2ccc(OCC3(C(F)(F)F)OCCO3)cc2)c1 [compound 204] | 100 | 0 |  |
| CCCOC(=O)c1cnn(Cc2ccc(OCC(O)(O)C(F)(F)F)cc2)c1 [compound 42] | 99 | 85 |  |
| CCO/C(=C\Oc1cccc(Cn2cc(C(=O)OCCC(C)C)cn2)c1)C(F)(F)F [compound 350] |  |  | Test A disease control rating [1, 5]: 100%; Test B disease control rating [2, 5]: 0% |
| CCOC(=O)c1csc(Cc2ccc(OCC3(C(F)(F)F)OCCO3)cc2)n1 [compound 137] | 79 | 0 |  |
| NCc1ccc(OCC2(C(F)(F)F)OCCO2)cc1 [compound 174] | 0 | 0 |  |
| CCOC(=COc1ccc(Cc2ccnc(OCC[Si](C)(C)C)n2)cc1)C(F)(F)F [compound 313] |  |  | Test A disease control rating [1, 6]: 0%; Test B disease control rating [2, 6]: 0% |
| CC(=O)COC(=O)c1cnn(Cc2ccc(OCC3(C(F)(F)F)OCCO3)cc2)c1 [compound 169] | 100 | 0 |  |
| CCO/C(=C\Oc1cccc(Cn2cc(C(=O)OCC(C)=O)cn2)c1)C(F)(F)F [compound 337] |  |  | Test A disease control rating [1, 5]: 100%; Test B disease control rating [2, 5]: 0% |
| CCO/C(=C\Oc1ccc(CNC(=O)C(C)C)cc1)C(F)(F)F [compound 210] | 0 | 0 |  |
| CCO/C(=C\Oc1ccc(Cn2cc(C(F)(F)F)cn2)cc1)C(F)(F)F [compound 182] | 0 | 0 |  |
| CCOC(=COc1ccc(CCl)cc1)C(F)(F)F [compound 434] |  |  | Test A disease control rating [1, 6]: 0%; Test B disease control rating [2, 6]: 0% |
| CCOC(=O)c1ccnn1Cc1ccc(F)c(O/C=C(\OCC)C(F)(F)F)c1 [compound 419] |  |  | Test A disease control rating [1, 5]: 0%; Test B disease control rating [2, 5]: 0% |
| CS(=O)(=O)c1ccc(OCC(O)(O)C(F)(F)F)cc1 [compound 31] | 44 | 93 |  |
| CCO/C(=C\Oc1ccc(Cn2c(=O)oc3ccccc32)cc1)C(F)(F)F [compound 226] | 0 | 0 |  |
| COC(=O)c1cnn(Cc2ccc(OCC3(C(F)(F)F)OCCO3)cc2)c1 [compound 13] | 99 | 0 |  |
| CCO/C(=C\Oc1ccc(Cn2cc(C#N)cn2)cc1)C(F)(F)F [compound 205] | 0 | 0 |  |
| CCOC(=O)c1cnn(Cc2ccc(CO/C=C(\OCC)C(F)(F)F)cc2)c1 [compound 167] | 38 | 0 |  |
| CCOC(=COc1ccc([N+](=O)[O-])cc1)C(F)(F)F [compound 279] |  |  | Test A disease control rating [1, 6]: 0%; Test B disease control rating [2, 6]: 0% |
| CS(=O)(=O)c1ccc(OCC2(C(F)(F)F)OCCO2)cc1 [compound 24] | 81 | 91 |  |
| CCCOC(=O)c1ccc(O/C=C(\OCC)C(F)(F)F)cc1 [compound 94] | 0 | 0 |  |
| CCO/C(=C\Oc1ccc(Cn2ccc(C(=O)OCC3CCC3)n2)cc1)C(F)(F)F [compound 361] |  |  | Test A disease control rating [1, 5]: 100%; Test B disease control rating [2, 5]: 0% |
| CCOC(=O)c1cn(Cc2ccc(O/C=C(\OCC)C(F)(F)F)cc2)nn1 [compound 121] | 100 | 0 |  |
| FC(F)(F)C1(COc2ccc(Oc3ccccc3)cc2)OCCO1 [compound 191] | 0 | 0 |  |
